Reference: patent US20180045715A1, “STRUCTURE AND FUNCTION OF THE SALICYCLIC ACID BINDING SITES ON HUMAN HMGB1 AND METHODS OF USE THEREOF FOR THE RATIONAL DESIGN OF BOTH SALICYCLIC ACID DERIVATIVES AND OTHER AGENTS THAT ALTER ANIMAL AND PLANT HMGBS ACTIVITIES” (Boyce Thompson Institute for Plant Research, Inc., priority 2015, published 2018)
“And” between values parts separate entries of the source, which are not always exact repeats. Equal values may be shown once. “Also recorded” adds a separate entry of the source. Read-outs that look alike come from different tables or passages of the source.

Columns and labels:
HMGB1 Box A domain = molecular target: T1, HMGB1 Box A domain (Homo sapiens, UniProt P09429); assay: 15N-1H HSQC titration for Kd measurement; format: binding
T1 construct: (iii) Box A: residues 10-80; hexaHis (TEV-cleavable) (N, cleaved yes); made in house
T1 sequence (P09429 10-80): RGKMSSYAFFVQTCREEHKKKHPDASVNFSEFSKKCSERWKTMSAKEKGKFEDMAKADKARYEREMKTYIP
Method: […] Samples were analyzed with and without SA or other candidate inhibitors at 25° C. Chemical shift perturbation studies were carried out using either a Bruker Avance 800 MHz Avance NMR system with 4-mm NMR tubes, or using a Bruker Avance 600 MHz NMR spectrometer equipped with a 1.7 mm micro cryoprobe. 1024 or 2048 complex points were acquired for each of 80 to 200 increments in the ^15N dimension with a recycle delay of 1 s. Each spectrum was typically acquired for 2-8 hrs. Chemical shift assignments were determined using a uniformly ^13C,^15N-enriched HMGB1-ΔC construct at 25° C. via traditional triple-resonance NMR experiments (Biamonti et al., 1994; Moseley et al., 2001) recorded on a Bruker 800 MHz NMR spectrometer equipped with a 5 mm cryoprobe. Disulfide oxidation studies were carried out using the ^15N-^1H SOFAST-HMQC NMR experiment (Schanda & Brutscher, 2005; Schanda et al., 2005; Zandarashvili et al., 2013).
NMR experiments were used to discover that ac3AESA binds to HMGB1 Box A domain of HMGB1 more tightly than SA itself. […] Chemical shift perturbations (CSPs) are defined as Δδppm=[(δHN*6.5)^2+δN^2]^1/2.

HMGB1^SS = molecular target: T2, HMGB1^SS (Homo sapiens, UniProt P09429); assay: HMGB1^SS-induced cytokine and COX-2 gene expression in human macrophages (qPCR); format: cell-based; conditions: 3 h, 100 μM SA or 1 μM ac3AESA
T2 construct: (i) full length: residues 2-215; 6x His (cleaved yes); made in house; host or cells: Escherichia coli BL21
T2 sequence (P09429 2-215): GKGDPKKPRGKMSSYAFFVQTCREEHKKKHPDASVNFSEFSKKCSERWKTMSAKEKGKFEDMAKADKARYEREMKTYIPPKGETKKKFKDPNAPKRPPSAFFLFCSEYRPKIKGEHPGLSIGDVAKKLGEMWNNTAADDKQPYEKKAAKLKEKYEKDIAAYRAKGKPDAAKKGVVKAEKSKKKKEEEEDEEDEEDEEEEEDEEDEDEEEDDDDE
Method: (§1) Human HeLa cells were grown in T75 flasks in DMEM medium supplemented with penicillin (10,000 IU/mL) streptomycin ([…]), and 10% fetal calf serum. Ptgs2−/− MEFs were derived from Ptgs2−/− E16 mouse embryos, obtained from the mating of Ptgs2+/− mice purchased from Taconic Biosciences. PBMCs were isolated from buffy coats of donor blood (Hospital of Magenta, Milan, Italy) by Ficoll gradient centrifugation (Lymphoprep; AXIS-SHIELD. CD14+ monocytes were isolated by positive immunoselection (CD14 Microbeads; Miltenyi Biotec) according to the manufacturer's instructions, and differentiated into macrophages using X-Vivo medium supplemented with 1% heat inactivated human serum, GM-CSF, and M-CSF.
Macrophages were exposed to 3 μg/ml HMGB1^SS or 50 ng/ml LPS. Total RNAs were isolated using the Illustra RNAspin Mini kit (GE Healthcare), and complementary DNA (cDNA) was obtained by retro-transcription with oligo(dT) primers (Invitrogen, Carlsbad, Calif., USA) and SuperScript II Reverse Transcriptase (Invitrogen) following the manufacturers' instructions. Quantitative real-time PCR was performed using a LightCycler480 (Roche Molecular Diagnostics), in duplicates, using SYBR Green I master mix and the oligonucleotides listed in Table of primers below. The ΔCt method was used for quantification, and the β-actin gene was used for normalization.

HMGB1 = molecular target: T3, HMGB1 (Homo sapiens, UniProt P09429); assay: Cell migration assay with mouse embryonic fibroblasts, WT or Ptgs2-/-; format: cell-based; conditions: dose-dependent, both WT and Ptgs2−/− MEFs
T3 construct: (i) full length: residues 2-215; 6x His (cleaved yes); made in house; host or cells: Escherichia coli BL21
T3 sequence (P09429 2-215): T2 sequence (P09429 2-215)
Method: as §1
Cell migration was assayed using Boyden chambers (Venereau et al., 2012). The downside of PVP-free polycarbonate filters (8 μm pores; Millipore) was coated with 50 μg/ml fibronectin (Sigma). Serum-free DMEM (negative control), DMEM containing 0.1 nM fMLP (positive control; Sigma), or DMEM containing 1 nM HMGB1^RE or HMGB1^SS were placed in the lower chamber, together with different concentrations of SA (Sigma). The mouse 3T3 fibroblast cells were cultured in DMEM media supplemented with 10% CS until 90% confluence, washed twice with PBS to eliminate any floating cells, and harvested with trypsin. […]

AtHMGB3 = molecular target: T4, AtHMGB3 (Arabidopsis thaliana, UniProt P93047); conditions: co-infiltration of 1-10 μM SA, 1 μM AtHMGB3
T4 sequence (P93047 1-141): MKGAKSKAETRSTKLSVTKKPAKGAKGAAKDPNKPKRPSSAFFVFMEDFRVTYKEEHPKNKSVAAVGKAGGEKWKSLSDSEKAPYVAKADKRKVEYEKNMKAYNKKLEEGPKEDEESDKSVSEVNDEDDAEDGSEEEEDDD
Method: To detect the phosphorylation of Arabidopsis MAPKs (MPK3/4/6), 3 to 4 week-old soil grown Arabidopsis leaves were infiltrated with 1 μM AtHMGB3 or 1 μM Pep1 peptide ([…]; synthesized by GenScript USA Inc.). Two leaf disks were cut from the leaf center of two different leaves using a cork borer (diameter=0.7 cm) and immediately frozen and ground to fine powder in liquid nitrogen. […] The protein concentration of supernatant was measured using the Bradford reagent (Bio-Rad). Forty μg of proteins per sample was separated on the 8% SDS-PAGE and transferred to a PVDF membrane for immunoblotting using the anti-phospho-p44/42 MAPK antibody (Cell Signaling Technology). The large subunit of Rubisco was visualized by Coomassie Brilliant Blue (CBB) staining of the PVDF membrane in order to assess consistency of loading.

O=C(O)c1ccccc1O [SA, salicylic acid]
Kd (HMGB1 Box A domain; 0.2 mM Box A, pH 7.5, read-out: Kd of binding to HMGB1 Box A (HSQC titration, 1:1 fit)): ~90 mM and 90 mM
Kd (HMGB1 Box A domain; Box A or full-length HMGB1, read-out: Kd from titrating SA with either Box A or full-length HMGB1): ~10 mM
Kd (HMGB1 Box A domain; read-out: affinity (Kd) for Box A of HMGB1 as stated in definitions): ~10 mM
suppression of cytokine (IL-6, TNFα) and COX-2 expression induced by HMGB1^SS (HMGB1^SS): partially or completely suppressed; also recorded: partially suppressed
inhibition of fibroblast migration in WT and Ptgs2-/- MEFs (HMGB1): effectively inhibited
effect on MPK3/6 activation by AtHMGB3 (AtHMGB3): blocked
